Experimental data: the supplement of paper PMC10307832

Columns and labels:
Test in all cases: relative viability (nuclei count vs DMSO), 5 days (fraction); higher = more cells survive
[1] = compound: C=CCn1c(=O)c2cnc(Nc3ccc(N4CCN(C)CC4)cc3)nc2n1-c1cccc(C(C)(C)O)n1 [Adavosertib] + Cc1nc(Nc2ncc(C(=O)Nc3c(C)cccc3Cl)s2)cc(N2CCN(CCO)CC2)n1 [Dasatinib] (partner 0.075 µM)
Procedure, shortened: (§1)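 Lung cancer cell lines were seeded in 1536-well plates and dosed by pin tool the next day, with either a single drug or a fixed anchor-drug dose combined with five library-drug doses (not always all listed) spaced in √10 steps. Five days later, one step fixed the cells and stained their nuclei (final 0.05% Triton X-100, 1% formaldehyde, 1 ug/ml Hoechst), and nuclei were counted on 4× images. Relative viability is the nuclei count in treated wells divided by the count in vehicle wells, and each value is the median of duplicate plates.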

[2] = compound: COc1nc(N)nc2c1ncn2[C@@H]1O[C@H](CO)[C@@H](O)[C@@H]1O [Nelarabine] + CC(=O)Nc1cccc(-n2c(=O)n(C3CC3)c(=O)c3c(Nc4ccc(I)cc4F)n(C)c(=O)c(C)c32)c1 [Trametinib] (partner 0.02 µM)
Procedure, shortened: as §1

[3] = compound: COc1nc(N)nc2c1ncn2[C@@H]1O[C@H](CO)[C@@H](O)[C@@H]1O [Nelarabine] + COc1cc2c(Oc3ccc(NC(=O)C4(C(=O)Nc5ccc(F)cc5)CC4)cc3F)ccnc2cc1OCCCN1CCOCC1 [Foretinib] (partner 0.25 µM)
Procedure, shortened: as §1

[4] = compound: COc1nc(N)nc2c1ncn2[C@@H]1O[C@H](CO)[C@@H](O)[C@@H]1O [Nelarabine] + CS(=O)(=O)N1CCN(Cc2cc3nc(-c4cccc5[nH]ncc45)nc(N4CCOCC4)c3s2)CC1 [Pictilisib] (partner 1 µM)
Procedure, shortened: as §1

Cell Line	relative viability ([1]; first compound 0.01 µM)	relative viability ([1]; first compound 0.03162 µM)	relative viability ([1]; first compound 0.1 µM)	relative viability ([1]; first compound 0.3162 µM)	relative viability ([2]; first compound 0.01 µM)	relative viability ([2]; first compound 0.03162 µM)	relative viability ([2]; first compound 0.1 µM)	relative viability ([2]; first compound 0.3162 µM)	relative viability ([2]; first compound 1 µM)	relative viability ([3]; first compound 0.01 µM)	relative viability ([3]; first compound 0.03162 µM)	relative viability ([3]; first compound 0.1 µM)	relative viability ([3]; first compound 0.3162 µM)	relative viability ([3]; first compound 1 µM)	relative viability ([4]; first compound 0.01 µM)	relative viability ([4]; first compound 0.03162 µM)	relative viability ([4]; first compound 0.1 µM)	relative viability ([4]; first compound 0.3162 µM)	relative viability ([4]; first compound 1 µM)
NCI-H1355	0.673	0.643	0.696	0.569	0.451	0.343	0.43	0.346	0.477	1.05	0.984	0.947	1	1.03	0.484	0.366	0.335	0.465	0.478
COR-L 105	0.285	0.308	0.331	0.246	0.351	0.398	0.448	0.383	0.482	0.953	0.991	1.26	1.08	0.967	0.341	0.4	0.352	0.424	0.39
201T	0.544	0.524	0.568	0.463	0.781	0.775	0.737	0.712	0.73	1.46	–	1.04	1.03	1.05	0.792	0.556	0.718	0.714	0.705
NCI-H2342	0.3	0.345	0.338	0.289	0.87	0.825	0.847	0.701	0.907	0.974	0.887	0.875	0.906	1.01	–	–	–	–	–
NCI-H838	0.291	0.326	0.31	0.285	0.572	0.586	0.473	0.621	0.575	1.24	0.937	1.08	1.08	1.09	0.481	0.331	0.428	0.474	0.438
NCI-H522	0.83	0.749	0.944	0.739	0.82	1.03	0.662	0.726	0.742	–	–	–	–	–	–	–	–	–	–
CAL-12T	0.501	0.416	0.438	0.222	0.351	0.314	0.404	0.352	0.347	1.3	1.14	1.15	1.09	1.04	0.393	0.642	0.365	0.494	0.423
NCI-H1755	0.406	0.424	0.447	0.384	0.852	0.777	0.753	0.692	0.836	0.939	0.82	0.928	1.05	1.01	0.488	0.429	0.507	0.429	0.522
LCLC-103H	0.422	0.44	0.435	0.356	0.72	0.68	0.751	0.758	0.69	0.958	0.825	0.72	0.815	0.79	0.756	0.811	0.62	0.671	0.652
NCI-H1666	0.754	0.821	0.854	0.733	0.82	1	0.738	0.839	0.859	1.05	1.02	0.918	1	1.03	0.524	0.419	0.371	0.409	0.551
LC-2-ad	0.539	0.654	0.582	0.493	1.09	1.01	0.922	0.993	0.899	1	1.01	0.848	0.885	0.858	0.624	0.467	0.428	0.482	0.468
PC-3 [JPC-3]	0.994	0.937	0.933	1.05	0.753	0.808	0.683	0.672	0.775	1.14	0.99	1.04	1.03	1.09	0.599	0.853	0.7	0.895	0.749
A-427	0.715	0.709	0.805	0.425	0.835	0.772	0.728	0.721	0.773	1.11	0.97	0.972	1.13	0.954	0.928	0.749	0.745	0.716	0.714
NCI-H1651	0.479	0.409	0.396	0.282	0.948	0.909	0.842	0.827	0.821	1.12	0.782	0.948	0.718	0.912	0.683	0.476	0.63	0.699	0.736
IA-LM	–	–	–	–	–	–	–	–	–	1.37	1.01	1.23	1.18	1.27	0.369	0.343	0.22	0.259	0.328
Calu-6	–	–	–	–	–	–	–	–	–	1.01	0.826	0.9	0.959	0.928	1.15	0.856	0.977	0.891	0.962
NCI-H1792	–	0.753	0.942	0.865	0.541	0.513	0.418	0.373	0.508	–	–	–	–	–	0.348	–	0.323	0.326	0.323
NCI-H1623	0.451	0.553	0.507	0.575	–	–	–	–	–	0.971	0.818	0.879	0.757	0.834	–	–	–	–	–
NCI-H1648	–	–	–	–	–	0.656	–	0.451	0.477	–	–	–	–	–	–	–	–	–	–
NCI-H1703	–	–	–	–	–	–	–	–	–	0.388	0.405	0.332	0.289	0.395	0.248	–	0.237	0.211	0.227
ABC-1	0.551	0.594	0.677	0.563	–	–	–	–	–	1.11	0.862	0.931	1.05	0.94	0.901	0.828	0.584	1.01	0.756
